Read-outs that look alike come from different tables or passages of the source. Ends that are not written are not given here.
Tests used:
MRTF-A [1] = experiment: Site-specific MRTF-A phosphorylation (phosphospecific antibody immunoblot); assay type: cell-based, mouse; details: for phosphorylation at analysed phospho-sites: 2 μM CD or 100 ng/ml TPA, sites analysed with phosphospecific antibodies; for S33 phosphorylation / S98 phosphorylation: 100 ng/ml TPA, U0126 10 μM
Method: (§1) NIH3T3 cells were cultured in DMEM, 10% FCS.
(§2) Data was processed using GraphPad Prism version 5.03.

MRTF-A [2] = experiment: MRTF-A phosphorylation (SDS-PAGE mobility, immunoblot); assay type: cell-based, mouse; details: for inhibition of MRTF-A phosphorylation by PKC inhibitor: inhibitor pretreatment 20 min, 100 ng/ml TPA 30 min
Method: as §1, §2

[3] = tested on: F-actin assembly in NIH3T3 cells; experiment: F- and G-actin quantitation (F:G ratio); assay type: cell-based, mouse; details: n = 3; for effect of inhibitor on TPA inhibition of F-actin assembly: inhibitor 20 min, TPA 20 min, 15% FCS 20 min
Method: Cells were processed as described ([Vartiainen et al., 2007]) with modifications. G- and F-actin were detected using 0.3 μM DN'ase I-Alexa Fluor 488 conjugate and 5 U/ml Alexa Fluor 647-phalloidin (Molecular Probes). After three washes in PBS, cells were analysed using the Cellomics ArrayScan. For each experiment, six technical replicates were performed. Statistical significance of alterations in F:G ratio was estimated by one-way ANOVA (Dunnett's multiple comparison test).

MRTF-A [4] = experiment: MRTF-A subcellular localisation by immunofluorescence; assay type: cell-based, mouse; details: for effect of inhibitor on TPA block of serum-induced MRTF-A nuclear accumulation / inhibition of TPA-induced MRTF-A nuclear accumulation: U0126 10 μM, Gö6976 2 μM, Gö6983 6 μM; for effect of inhibitor on TPA block of serum-induced MRTF-A nuclear accumulation: TPA then 15% FCS; for inhibition of TPA-induced MRTF-A nuclear accumulation: pretreated 20 min
Method: as §1
(§3) For immunofluorescence ([Vartiainen et al., 2007]), NIH3T3 cells were transfected in six-well plates (150000 /well), with 50 ng pEF-Flag-MRTF-PK derivatives, 100 ng pEF-MRTF-A derivatives, 50 ng MEK-R4F, 100 ng RafER, using Lipofectamine 2000 (Invitrogen).
as §2

MEK = details: 10 μM U0126; ref Bain et al., 2007; cited from earlier work
Method: as §1

MRTF-A [5] = details: LatB; ref Vartiainen et al., 2007; cited from earlier work
G-actin = biological target: T1, G-actin (Oryctolagus cuniculus, UniProt P68135); experiment: Size exclusion chromatography of G-actin / Spacer1-RPEL2 peptide complexes; assay type: binding; details: SEC, Spacer1-RPEL2 peptides; for apparent molecular mass of G-actin complex: Superdex 200, 20 mM Tris (pH 8), 100 mM NaCl; for apparent stoichiometry of G-actin binding: Superdex 200, pH 8
T1 construct: Actin was prepared as described ([Mouilleron et al., 2008]); from tissue; host or cells: rabbit skeletal muscle (own knowledge of the cited method)
Method: Peptides were synthesised by the London Research Institute (LRI) peptide synthesis platform. MRTF-A(94–142), FAM-MRTF-A(62–104) and FAM-MRTF-A(67–98) derivatives are as in Figure 4—figure supplement 2A. Phosphorylated 10–12 mer peptides for immunizations were centred on the phosphoacceptor site (see Table 1). Actin was prepared as described ([Mouilleron et al., 2008]).
Preparation of LatB-actin and fluorescence polarisation anisotropy assay were described ([Guettler et al., 2008]). Size exclusion chromatography was on Superdex 200 column equilibrated in 20 mM Tris (pH 8), 100 mM NaCl, 3 mM MgCl2, 0.2 mM EGTA, 0.3 mM TCEP [(tris(2-carboxyethyl)phosphine)], 5% (v/v) glycerol, calibrated with globular proteins of known molecular weight.

ERK = ERK activation immunoblot; assay type: cell-based; details: inhibitor pretreatment 20 min, 100 ng/ml TPA 30 min
Method: as §1, §2

MRTF-SRF target genes = details: 100 ng/ml TPA, 0.25-3 hr; n = 2
MRTF-A(2–204)-PK = MRTF-A(2–204)-PK subcellular localisation by immunofluorescence; assay type: cell-based, mouse; details: TPA
Method: as §1, §3, §2

RhoA = details: 100 ng/ml TPA, then 15% FCS
Method: RhoGTP pull-downs used Rho activation assay (Millipore) with modifications. Cells were grown in 15 cm dishes, washed twice in ice-cold TBS, scraped in 400 μl 2x lysis buffer with 16% glycerol, made to 800 μl with water, and clarified. 20 μl was retained as input, and the remainder incubated with 20 μl GST-Rhotekin for 45 min at 4°C. After three 1 ml washes with Lysis buffer, proteins were eluted with SDS loading buffer and Rho recovery assessed by immunoblotting.

MLC2 = MLC2 S19; 100 ng/ml TPA, then 15% FCS
PKC isoforms = details: 2 μM Gö6976; ref Martiny-Baron et al., 1993; cited from earlier work
Method: as §1

[6] = tested on: RevΔ MRTF-A GFP derivatives (Crm1-dependent NES); experiment: RevΔGFP nuclear export assay; assay type: cell-based; details: 50 nM LMB
[7] = NIH3T3 cells, 100 ng/ml TPA, 2 μM CD or 50 nM LMB
[8] = 100 ng/ml TPA 20 min, then 15% FCS 20 min

Molecule: C=C1[C@@H](C)[C@H]2[C@H](Cc3ccccc3)NC(=O)[C@]23[C@H](OC(C)=O)/C=C/[C@@](C)(O)C(=O)[C@@H](C)C/C=C/[C@H]3[C@@H]1O [CD, cytochalasin D]
- phosphorylation at analysed phospho-sites (MRTF-A [1]): induced a gradual accumulation at all analysed sites
- phosphorylation of MRTF-A/MC fusion protein (MRTF-A [2]; 2 μM CD): exhibited CD-induced phosphorylation similar to that seen in MRTF-A
- ERK dependence of CD-induced MRTF-A phosphorylation (MRTF-A [2]; 2 μM CD with and without 10 μM U0126): this occurred independently of ERK
- phosphorylation of MRTF-A B2A (NLS mutant) (MRTF-A [2]; 15% FCS or 2 μM CD, 10 μM U0126): could be induced by serum, but not CD
- MRTF-A phosphorylation (MRTF-A [2]; [7]): also induced MRTF-A phosphorylation

Molecule: N#CC(=C(/N)Sc1ccccc1N)/C(C#N)=C(/N)Sc1ccccc1N [U0126]
- effect of inhibitor on TPA inhibition of F-actin assembly [3]: not by U0126 or Gö6976
- effect of inhibitor on TPA block of serum-induced MRTF-A nuclear accumulation (MRTF-A [4]): insensitive to U0126 and Gö6976
- S33 phosphorylation (MRTF-A [1]): Induced S33 phosphorylation was U0126-sensitive
- S98 phosphorylation (MRTF-A [1]): U0126-sensitive
- MEK inhibition and selectivity (MEK): sufficient to inhibit MEK activation without substantial effects on other kinases

Molecule: C/C1=C/C(=O)O[C@@H]2C[C@@H](CC[C@H](C)/C=C\CC1)O[C@@](O)([C@@H]1CSC(=O)N1)C2 [LatB, Latrunculin B]
- return of serum-induced MRTF-A phosphorylation (MRTF-A [2]; NIH3T3, 15% FCS 30 min, then 1 μM LatB): rapid return of MRTF-A phosphorylation to prestimulation levels
- cytoplasmic localisation of MRTF-A (MRTF-A [5]): restore cytoplasmic localisation of MRTF-A

Molecule: S1-R2 WT: Spacer1-RPEL2 peptide (LKLKRARLADDLNEKIAQRPGPMELVEKNILPVESSLKEAIIVGQVNYP; UniProt Q8K4J6 94-142, looked up, fragment)
- apparent molecular mass of G-actin complex (G-actin): 70.9 kDa
- apparent stoichiometry of G-actin binding (G-actin): 1.5 actins

Molecule: COc1ccc2c(c1)c(C1=C(c3c[nH]c4ccccc34)C(=O)NC1=O)cn2CCCN(C)C [Gö6983]
- effect of inhibitor on TPA inhibition of F-actin assembly [3]: relieved by Gö6983
- effect of inhibitor on TPA block of serum-induced MRTF-A nuclear accumulation (MRTF-A [4]): relieved by Gö6983
- inhibition of TPA-induced MRTF-A nuclear accumulation (MRTF-A [4]; 100 ng/ml TPA): sensitive to both the conventional-PKC inhibitor Gö6976 and the pan-PKC inhibitor Gö6983
- inhibition of TPA-induced ERK activation (ERK): completely inhibited ERK activation
- inhibition of MRTF-A phosphorylation by PKC inhibitor (MRTF-A [2]): completely inhibited ERK activation and MRTF-A phosphorylation

Molecule: CCCCCCCCCCCCCC(=O)O[C@@H]1[C@@H](C)[C@@]2(O)[C@@H](C=C(CO)C[C@]3(O)C(=O)C(C)=C[C@@H]23)[C@H]2C(C)(C)[C@]12OC(C)=O [TPA]
- serum-induced F-actin assembly [3, 8]: inhibited serum-induced F-actin assembly
- inhibition of serum-induced MRTF-A nuclear accumulation by TPA pretreatment (MRTF-A [4]; [8]): effectively blocked MRTF-A nuclear accumulation upon subsequent serum stimulation
- proportion of cells with predominantly nuclear MRTF-A (MRTF-A [4]; 100 ng/ml TPA, 20 min): substantially increased the proportion of cells with predominantly nuclear MRTF-A
- induction of transcription of MRTF-SRF target genes (MRTF-SRF target genes): induced transcription of MRTF-SRF target genes in an ERK-dependent manner
- nuclear accumulation of MRTF-A(2–204)-PK (MRTF-A(2–204)-PK): promoted nuclear accumulation of MRTF-A(2–204)-PK
- S33 phosphorylation (MRTF-A [1]): could be slightly increased upon serum or TPA stimulation
- S98 phosphorylation (MRTF-A [1]): by TPA in a U0126-sensitive fashion
- phosphorylation at analysed phospho-sites (MRTF-A [1]): induced a gradual accumulation at all analysed sites
- serum-induced accumulation of Rho.GTP (RhoA): inhibited serum-induced accumulation of Rho.GTP
- serum-induced phosphorylation of MLC2 (MLC2): inhibited serum-induced accumulation of Rho.GTP, and phosphorylation of MLC2, independently of ERK but in a PKC-dependent manner
- MRTF-A phosphorylation (MRTF-A [2]): also induced MRTF-A phosphorylation

Molecule: CC/C(=C(\c1ccc(O)cc1)c1ccc(OCCN(C)C)cc1)c1ccccc1 [4-hydroxytamoxifen]
- block of serum-induced nuclear accumulation by pre-treatment (MRTF-A [4]; Raf-ER cells, 1 μM 4OHT 20 min, then 15% FCS 20 min): Only pre-treatment with TPA significantly blocked serum-induced nuclear accumulation

Molecule: Cn1c2ccccc2c2c3c(c4c5ccccc5n(CCC#N)c4c21)CNC3=O [Gö6976]
- effect of inhibitor on TPA inhibition of F-actin assembly [3]: not by U0126 or Gö6976
- effect of inhibitor on TPA block of serum-induced MRTF-A nuclear accumulation (MRTF-A [4]): insensitive to U0126 and Gö6976
- inhibition of TPA-induced MRTF-A nuclear accumulation (MRTF-A [4]; 100 ng/ml TPA): sensitive to both the conventional-PKC inhibitor Gö6976 and the pan-PKC inhibitor Gö6983
- inhibition of TPA-induced ERK activation (ERK): only the latter completely inhibited ERK activation
- PKC isoform block (PKC isoforms): insufficient to block non-novel PKC isoforms
- inhibition of MRTF-A phosphorylation by PKC inhibitor (MRTF-A [2]): only the latter completely inhibited ERK activation and MRTF-A phosphorylation

Molecule: CCC(=C/[C@H](C)C/C=C/C(C)=C/[C@@H](C)C(=O)[C@@H](C)[C@H](O)[C@@H](C)C/C(C)=C/C(=O)O)/C=C/[C@@H]1OC(=O)C=C[C@@H]1C [Leptomycin B]
- nuclear localisation of RevΔMRTF-A derivatives [6]: Nuclear localisation could be restored by serum stimulation, or by treatment with Leptomycin B (LMB)
- nuclear localisation of RevΔMRTF-A derivatives ([6]; listed as LMB): both proteins accumulated in the nucleus upon LMB treatment
- MRTF-A phosphorylation (MRTF-A [2]; [7]): did not induce phosphorylation unless the cells were simultaneously stimulated with CD or FCS

Molecule: S1-R2 pS98: Spacer1-RPEL2 peptide phosphorylated at S98 (LKLKRARLADDLNEKIAQRPGPMELVEKNILPVESSLKEAIIVGQVNYP; also: phosphorylated at S98, position not located in chain; UniProt Q8K4J6 94-142, looked up, fragment)
- apparent molecular mass of G-actin complex (G-actin): 64.1 kDa
- apparent stoichiometry of G-actin binding (G-actin): 1.4 actins

— paper PMC4963197, “Phosphorylation acts positively and negatively to regulate MRTF-A subcellular localisation and activity” (eLife, 2016)
